Results reported in ChEMBL document CHEMBL1141812, “bis-5-Alkylresorcinols from Panopsis rubescens that inhibit DNA polymerase beta” (J Nat Prod, 1999).

Columns and labels:
DNA polymerase beta = DNA polymerase beta (Rattus norvegicus, UniProt P06766); assay: Inhibition of rat DNA polymerase beta assessed as [3H]TTP incorporation after 60 mins by scintillation counting in presence of bovine serum albumin
[1] = target: DNA polymerase beta (Rattus norvegicus) (UniProt P06766); assay: Inhibition of rat DNA polymerase beta assessed as [3H]TTP incorporation at 10 ug/mL after 60 mins by scintillation counting
[2] = target: DNA polymerase beta (Rattus norvegicus) (UniProt P06766); assay: Inhibition of rat DNA polymerase beta assessed as [3H]TTP incorporation at 50 ug/mL after 60 mins by scintillation counting

| SMILES | IC50 (DNA polymerase beta) [µM] | inhibition [1] [%] | inhibition [2] [%] |
| --- | --- | --- | --- |
| Oc1cc(O)cc(CCC/C=C\CCCCCCCCCc2cc(O)cc(O)c2)c1 | 7.5 | 51 | 98 |
| Oc1cc(O)cc(CCCCCCCCCCCCCCc2cc(O)cc(O)c2)c1 [BISNORSTRIATOL] | 5.8 | 50 | 79 |
| Oc1cc(O)cc(CCCCCC/C=C\CCCCCCc2cc(O)cc(O)c2)c1 | 6.5 | 44 | 92 |
